How the values were obtained:
Assay type in all cases: cell-based
[1] = test system: Marker of Proliferation KI-67 (MKI67) gene expression; assay: MKI67 gene expression in Human Follicle Dermal Papilla Cells (RT-qPCR); details: sample at 5% in culture medium, HFDPC, 24 hours of incubation
Protocol: (§1) This assay determined the beneficial effect of the acetyl sh-hexapeptide-5 amide acetate in the reduction of the hair loss in an in vitro assay, using Dermal Papilla cells and analysed through gene expression analysis. In particular, this test determinate the effect of the acetyl sh-hexapeptide-5 amide acetate alone or in combination with tripeptide-10 citrulline after 24 hours of treatment of Human Follicle Dermal Papilla Cells (HFDPC), and through analysis of Fibroblast Growth Factor-7 (FGF7), Insulin-like Growth Factor-1 (IGF1), and Marker of Proliferation KI-67 (MKI67) gene expression, using Quantitative reverse transcription PCR (RT-qPCR) method.
(§2) Analytical equipment: Microscope, incubator, refrigerated centrifuge, statistical analysis software, micropipettes, pipettes, propipette, rack, quantifier Nano-Drop spectrophotometer, laminar flow hood, QuantStudio 5 (Applied Biosystem) Quantitative real-time PCR, vortex, Burker chamber, heating block, thermocycler, and consumables. […]
(§3) Methodology: Cell number and viability were determined using a Burker chamber and Trypan-Blue staining. […]
(§4) After 24 hours of incubation, the medium was removed, and cells were washed with PBS (phosphate buffered saline). […] 2 min (Ramp rate: 4.4° C./sec) 1 cycle PCR Analysis Mode: Quantification 95° C. […] All data were statistically analysed.

[2] = test system: Fibroblast Growth Factor-7 (FGF7) gene expression; assay: FGF7 gene expression in Human Follicle Dermal Papilla Cells (RT-qPCR); details: HFDPC, 24 hours of incubation
Protocol: as §1, §2, §3, §4

[3] = test system: Insulin-like Growth Factor-1 (IGF1) gene expression; assay: IGF1 gene expression in Human Follicle Dermal Papilla Cells (RT-qPCR); details: HFDPC, 24 hours of incubation
Protocol: as §1, §2, §3, §4

“acetyl sh-hexapeptide-5 amide acetate [sample 1]” was tested, and the “MK167 gene expression increase compared to the untreated control” value [1] was 100.4±25.2%, the “Fibroblast Growth Factor-7 (FGF7) expression increase compared to the untreated control” value ([2]; sample at 1% in culture medium) was 72.3±12.5% and the “Fibroblast Growth Factor-7 (FGF7) expression increase compared to the untreated control” value ([2]; sample at 5% in culture medium) was 108.0±8.3%. For the same substance, the “IGF1 gene expression increase compared to the untreated control” value ([3]; sample at 1% in culture medium) was 286.3±72.0% and the “IGF1 gene expression increase compared to the untreated control” value ([3]; sample at 5% in culture medium) was 300.2±45.0%.
